According to PMC10734620, “A blinded in vitro analysis of the intrinsic immunogenicity of hepatotoxic drugs: implications for preclinical risk assessment” (Toxicological Sciences, 2023):
Like-named read-outs stand apart in the source and are kept apart here.

Columns and labels:
T-cell clones = experiment: Generation and drug-specificity testing of T-cell clones; type: cell-based, human; conditions: for Detection of drug-responsive T-cell clones / T-cell clones responsive to drug (SI ≥ 2): 3 donors; for Detection of drug-responsive T-cell clones: SI ≥ 2; for Dose-dependent proliferation of drug-responsive T-cell clones: titrated concentrations, 48 h, EBV-transformed B-cells; for T-cell clones responsive to drug (SI ≥ 2): training compounds, maximum of 216 clones per donor; for Overall immunogenicity call in T-cell assays: priming assay and/or T-cell clones
Procedure: To establish T-cell lines, PBMC from 3 healthy HLA-typed (Table 2) donors were cultured with individual test compounds (at concentrations not associated with inhibition of mitogen-driven PBMC proliferation; see Figure 2 for individual concentrations) for 14 days. Medium was supplemented with IL-2 (50 U/ml; Peprotech, New Jersey) to maintain drug-specific T-cell expansion. T-cell clones were generated from the T-cell lines by serial dilution and repetitive mitogen stimulation ([Schnyder et al., 2000]). T-cells (0.3–3 cells/well) were cultured with irradiated allogenic PBMC (5 × 10^4/well) and PHA-P (1 µg/ml) in IL-2 containing medium. The medium was supplemented with fresh IL-2 on days 6, 9 and every 2 days thereafter. Growing cultures were expanded further with a second round of mitogen stimulation and tested for drug-specific T-cell proliferation on day 28. Cloned T-cells (5 × 10^4/well) were cultured with irradiated autologous EBV-transformed B-cells (1 × 10^4/well) and drug in duplicate wells for 48 h. Wells containing medium served as a negative control. Proliferation was measured by the addition of [^3H]-thymidine followed by scintillation counting. T-cell clones with SI ≥ 2 were considered drug-responsive and expanded using irradiated allogeneic PBMC for dose-response studies and assessment of CD4/8 phenotyping.
Proliferation was measured by the addition of [^3H]-thymidine as described above.
T-cell clones were washed with FACS buffer and CD phenotype determined using flow cytometry. Cells (10 000) were acquired using a FACSCanto II (BD Biosciences) and data analyzed by FACSDiva software.
Figure 6. Generation of training compound (nitroso sulfamethoxazole, vancomycin, and Bandrowski’s base)-specific T-cell clones. PBMC from 3 healthy donors were cultured with training compounds and supplemented with IL-2 (50 U/ml) for 14 days. T-cell clones were generated from the T-cell lines by serial dilution and repetitive mitogen stimulation. T-cells (0.3–3 cells/well) were stimulated with irradiated allogenic PBMC (5 × 10^4/well) and phytohemagglutinin (1 µg/ml). Well growing cultures were subjected to a second round of expansion then tested for drug-specific T-cell proliferation. Proliferation was measured by the addition of ^3H-thymidine followed by scintillation counting. A–C, Initial specificity test for nitroso sulfamethoxazole, vancomycin, and Bandrowski’s base clones. T-cell clones showing stimulation index, SI ≥ 2 were considered drug-responsive and expanded and used in dose-response studies. SI = Drug-induced T-cell proliferation divided by T-cell proliferation in cell culture media. […] T-cell activation was determined using [^3H]-thymidine incorporation.
Figure 7. […] PBMC from 3 healthy donors were cultured with test compounds and supplemented with IL-2 (50 U/ml) for 14 days. T-cell clones were generated from the T-cell lines by serial dilution and repetitive mitogen stimulation. T-cells (0.3–3 cells/well) were stimulated with irradiated allogenic PBMC (5 × 10^4/well) and phytohemagglutinin (1 µg/ml). Well growing cultures were subjected to a second round of expansion then tested for drug-specific T-cell proliferation. Proliferation was measured by the addition of ^3H-thymidine followed by scintillation counting. […] T-cell activation was determined using [^3H]-thymidine incorporation.

PBMC = experiment: Inhibition of mitogen-induced (PHA-P) PBMC proliferation; type: cell-based, human
Procedure: Test compounds were provided by GSK to Liverpool as blinded dry powders with a given volume of dimethyl sulfoxide to prepare stock concentrations of 50 mM. Stock concentrations were aliquoted and stored at −80°C until required for experiments. A fresh aliquot was utilized for every experiment. PBMC from 3 healthy donors were used to determine the maximum tolerated concentration of each test compound. PBMC (0.15 × 10^6) were cultured with graded compound concentrations in U-bottomed 96-well plates for 48 h at 37°C, 5% CO2. Phytohemagglutinin (PHA-P; 10 µg/ml) was added to cells for a further 24 h followed by assessment of proliferation through the addition of [^3H]-thymidine (0.5 µCi/well) for the last 16 h. […] The IC50 value was then calculated using 4-parameter logistic curve-fitting model (GraphPad prism 7.0).
Figure 2. Toxicity profiles of training and test compounds. […] PHA-P (10 µg/ml) was added to cells for a further 24 h followed by assessment of proliferation through the addition of [^3H]-thymidine (0.5 µCi/well) for the last 16 h. […] 4-parameter logistic functions were fit to the data and IC50 values were then reported (GraphPad prism 7.0). […] LPB (Liverpool Pharmacology Biobank) represents the unique identifier for PBMC isolated from each consented healthy blood donor for drug safety research. Percentage proliferation for each compound concentration = Proliferation following drug exposure divided by proliferation after cell culture media exposure multiplied by 100.

naïve T-cells = experiment: Priming of naïve human T-cells (dendritic cell-T-cell coculture); type: cell-based; conditions: for Proliferation of primed T-cells restimulated with titrated concentrations: 3 drug concentrations (low, medium, high), 48 h; for Number of donors with naïve T-cell priming: 3 study donors; for Proliferation of primed T-cells, drug- vs medium-restimulated wells: 14 days priming, restimulation 48 h at single concentration, 48 wells, [3H]-thymidine
Procedure: CD14+ monocytes were positively selected using CD14 antibody-conjugated microbeads. This was followed by the depletion of CD25+ cells from the CD14- population and the negative selection of CD45RA+ naïve T-cells. […] Dendritic cells were generated by culturing monocytes with a cocktail of GM-CSF (800 U/ml) and IL-4 (800 U/ml) in culture media for 6 days. Both cytokines were purchased from Peprotech (New Jersey). A maturation cocktail of TNF-α (25 ng/ml) and LPS (1 µg/ml) was added for 16 h before establishing the T-cell priming culture. Dendritic cells (8 × 10^3 per well) were cultured with naïve T-cells (1 × 10^5 per well) and the test compounds in a 96-well U-bottom tissue culture plate for 14 days at 37°C, 5% CO2. Cells were then washed extensively to remove unbound drug and cultures were restimulated with test compound or medium control (48 wells) for 48 h. Subsequent experiments were performed with training compounds to investigate the dose-dependent stimulation of naïve T-cells. In these experiments, T-cells were cultured with 3 concentrations of the test compound and medium (negative control) during the restimulation step. T-cell proliferative responses were determined by addition of [^3H]-thymidine (0.5 µCi/well) for the final 16 h of the culture period. Plates were harvested and counted as described above. […] Student’s t test was performed to determine statistical significance of T-cell proliferation when comparing medium- and drug-treated cultures (*p ≤ .05; **p ≤ .005; ***p < .001).
Figure 3. Naïve T-cell priming with training compounds. CD14+ monocytes were utilized to generate dendritic cells with a cocktail of GM-CSF (800 U/ml) and IL-4 (800 U/ml) in culture media for 6 days. […] A, Nitroso sulfamethoxazole. B, Vancomycin. C, Bandrowski’s base. D, Carbamazepine. E, Piperacillin. The degree of naïve T-cell priming was determined by comparing the counts per minutes (cpm) of drug and media-treated cultures using a beta counter. Student’s t test was performed to determine statistical significance (*p ≤ .05; **p ≤ .005; ***p < .001). Each data point represents T-cells proliferation in individual well of a 96 U-bottomed plate.
Figure 4. Dose-dependent stimulation of primed T-cells with training compound. […] Primed cells were washed extensively and then restimulated with 3 drug concentrations (low, medium, and high) for 48 h followed by determination of T-cell activation by [^3H]-thymidine incorporation. Each data point represents T-cells proliferation in individual well of a 96 U-bottomed plate.
Figure 5. Naïve T-cell priming with test compounds. […] B, Dacarbazine. […] F, Iproniazid. G, Mepivacaine. H, Nevirapine. […] J, Phenoxybenzamine. Primed cells were washed extensively and then restimulated medium or drug for 48 h followed by determination of T-cell activation by [^3H]-thymidine incorporation. Each data point represents T-cells proliferation in individual well of a 96 U-bottomed plate.

[1] = design: method as in Sakatis et al., 2012; Schofield et al., 2021; conditions: Positive = above the threshold of concern; assays not listed negative; ref Sakatis et al., 2012; Schofield et al., 2021; cited from earlier work
[2] = design: method as in FDA DILIrank datasets; conditions: ref FDA DILIrank datasets; cited from earlier work
[3] = Homo sapiens, PBMC, PBMC from 3 healthy donors, compound 48 h, then PHA-P 10 µg/ml 24 h, [3H]-thymidine, read-out: IC50, inhibition of mitogen-driven PBMC proliferation
[4] = PBMC from 3 healthy donors, compound 48 h, then PHA-P 10 µg/ml 24 h, [3H]-thymidine, read-out: IC50, inhibition of mitogen-driven PBMC proliferation

SMILES | Detection of drug-responsive T-cell clones (T-cell clones) | Dose-dependent proliferation of drug-responsive T-cell clones (T-cell clones) | T-cell clones responsive to drug (SI ≥ 2) (T-cell clones) | Proliferation of primed T-cells restimulated with titrated concentrations (naïve T-cells) | Number of donors with naïve T-cell priming (naïve T-cells) | Proliferation of primed T-cells, drug- vs medium-restimulated wells (naïve T-cells) | IC50 (PBMC; [4]) | Overall immunogenicity call in T-cell assays (T-cell clones) | other results
NC1=CC(=N\c2ccc(N)cc2)/C(N)=CC/1=N/c1ccc(N)cc1 [Bandrowski's base] | detected from each donor | proliferate in a dose-dependent manner | 13% | stimulated to proliferate in the presence of all 3 concentrations | 3 | Proliferation of primed T-cells was observed |  |  | IC50 (PBMC; [3]): 5 µM
NC(=O)N1c2ccccc2C=Cc2ccccc21 [Carbamazepine] | not detected |  |  |  | 1 | not observed | 260 µM |  | IC50 (PBMC; PBMC from 3 healthy donors, compound 48 h, then PHA-P 10 µg/ml 24 h, [3H]-thymidine, listed as carbamazepine, read-out: IC50, inhibition of mitogen-driven PBMC proliferation): ≥ 50 µM; Proliferation of primed T-cells on restimulation at highest concentration (naïve T-cells; restimulated at 200 µM): weakly significant proliferative response
CN(C)CCOC(c1ccccc1)c1ccccc1 [Diphenhydramine] |  |  |  |  |  |  |  | no false positives | 
CC[C@H]1OC(=O)[C@H](C)[C@@H](O[C@H]2C[C@@](C)(OC)[C@@H](O)[C@H](C)O2)[C@H](C)[C@@H](O[C@@H]2O[C@H](C)C[C@H](N(C)C)[C@H]2O)[C@](C)(O)C[C@@H](C)C(=O)[C@H](C)[C@@H](O)[C@]1(C)O [Erythromycin] |  | dose-dependent proliferative responses |  |  |  |  | 160 µM | potentially immunogenic | Number of drug-responsive T-cell clones (T-cell clones; donor 2): 3; T-cell clones stimulated to proliferate, donor 2 (T-cell clones; donor 2, maximum of 144 clones per donor): 2%; Detection of drug-responsive T-cell clones, other donors (T-cell clones; donors other than donor 2): not detected; CD phenotype of drug-responsive T-cell clones (T-cell clones; flow cytometry CD4/CD8): CD4+; Routine Assays that are Positive (GSK) [1]: Reactive metabolite; IC50 (PBMC; PBMC from 3 healthy donors, compound 48 h, then PHA-P 10 µg/ml 24 h, [3H]-thymidine, listed as erythromycin, read-out: IC50, inhibition of mitogen-driven PBMC proliferation): ≥ 50 µM
Cc1cc(NS(=O)(=O)c2ccc(N=O)cc2)no1 [Nitroso sulfamethoxazole, 4-Nitrososulfamethoxazole] | detected from each donor | proliferate in a dose-dependent manner | 10.0% | stimulated to proliferate in the presence of all 3 concentrations | 3 | Proliferation of primed T-cells was observed | 250 µM |  | IC50 (PBMC; PBMC from 3 healthy donors, compound 48 h, then PHA-P 10 µg/ml 24 h, [3H]-thymidine, listed as nitroso sulfamethoxazole, read-out: IC50, inhibition of mitogen-driven PBMC proliferation): ≥ 50 µM
CC(COc1ccccc1)N(CCCl)Cc1ccccc1 (centres unmarked) [Phenoxybenzamine] |  |  |  |  |  |  |  | no false positives | Routine Assays that are Positive (GSK) [1]: Reactive metabolite; IC50 (PBMC; Homo sapiens, PBMC, read-out: IC50, inhibition of mitogen-driven PBMC proliferation, PBMC from 3 healthy donors, compound 48 h, then PHA-P 10 µg/ml 24 h, [3H]-thymidine): 15 µM; IC50 (PBMC; read-out: IC50, inhibition of mitogen-driven PBMC proliferation, PBMC from 3 healthy donors, compound 48 h, then PHA-P 10 µg/ml 24 h, [3H]-thymidine): ≤ 20 µM; FDA Clinical Hepatotoxicity Concern [2]: No
CCN1CCN(C(=O)N[C@@H](C(=O)N[C@@H]2C(=O)N3[C@@H]2SC(C)(C)[C@@H]3C(=O)O)c2ccccc2)C(=O)C1=O [Piperacillin] | not detected |  |  | not detected |  | not observed |  |  | IC50 (PBMC; [3]): 1000 µM
CN[C@H](CC(C)C)C(=O)N[C@H]1C(=O)N[C@@H](CC(N)=O)C(=O)N[C@H]2C(=O)N[C@H]3C(=O)N[C@H](C(=O)N[C@H](C(=O)O)c4cc(O)cc(O)c4-c4cc3ccc4O)[C@H](O)c3ccc(c(Cl)c3)Oc3cc2cc(c3O[C@@H]2O[C@H](CO)[C@@H](O)[C@H](O)[C@H]2O[C@H]2C[C@](C)(N)[C@H](O)[C@H](C)O2)Oc2ccc(cc2Cl)[C@H]1O [Vancomycin] | detected from each donor | proliferate in a dose-dependent manner | 9.7% | stimulated to proliferate in the presence of all 3 concentrations | 3 | Proliferation of primed T-cells was observed |  |  | IC50 (PBMC; Homo sapiens, PBMC, read-out: IC50, inhibition of mitogen-driven PBMC proliferation): 2000 µM
